Data taken from US12180193B2, “Accelerating fibrosarcoma protein degrading compounds and associated methods of use” (Arvinas Operations, Inc., priority 2020, dated 2024).

Legend:
BRAF V600E = molecular target: T1, BRAF V600E (Homo sapiens, UniProt P15056, V600E); test: Cellular assay of target protein degradation, T-Rex 293 cells stably transfected with HA-BRAF_V600E (HA immunofluorescence, high content imaging); format: cell-based; conditions: T-Rex 293 HA-BRAF V600E; for DC50: half maximal degradation, read-out: BRaf V600E DC50; for Dmax: maximum degradation observed
T1 construct: expressed in transfected cells
T1 sequence (P15056 whole entry V600E): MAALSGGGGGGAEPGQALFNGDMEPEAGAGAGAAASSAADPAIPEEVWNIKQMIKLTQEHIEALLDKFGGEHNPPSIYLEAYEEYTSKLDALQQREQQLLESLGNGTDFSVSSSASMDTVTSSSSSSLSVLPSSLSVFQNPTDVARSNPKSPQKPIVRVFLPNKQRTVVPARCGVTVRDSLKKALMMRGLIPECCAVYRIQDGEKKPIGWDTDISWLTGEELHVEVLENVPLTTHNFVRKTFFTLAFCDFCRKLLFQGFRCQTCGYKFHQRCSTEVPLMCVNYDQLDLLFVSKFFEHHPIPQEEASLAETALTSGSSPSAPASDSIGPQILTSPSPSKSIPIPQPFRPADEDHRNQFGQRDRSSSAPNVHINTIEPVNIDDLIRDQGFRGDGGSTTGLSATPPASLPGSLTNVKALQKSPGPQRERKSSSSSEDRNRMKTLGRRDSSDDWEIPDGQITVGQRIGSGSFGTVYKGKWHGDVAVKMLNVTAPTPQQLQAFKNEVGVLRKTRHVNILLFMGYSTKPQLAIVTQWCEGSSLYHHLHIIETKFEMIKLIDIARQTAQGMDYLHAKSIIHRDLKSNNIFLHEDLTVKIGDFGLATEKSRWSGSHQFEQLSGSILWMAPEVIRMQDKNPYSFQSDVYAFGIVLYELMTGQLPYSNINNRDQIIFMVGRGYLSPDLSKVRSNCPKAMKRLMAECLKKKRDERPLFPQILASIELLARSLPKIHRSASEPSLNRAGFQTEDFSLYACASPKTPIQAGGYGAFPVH
Procedure, shortened: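 24 h compound exposure, 1 μM–0.1 nM final, 0.1% DMSO, 37 °C; cells induced with 1 ng/mL doxycycline. PFA fix, Triton permeabilize, anti-HA overnight 4 °C, Hoechst/phalloidin counterstain. Output: DC50, Dmax as % control.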

BRAF G466V = molecular target: T2, BRAF G466V (Homo sapiens, UniProt P15056, G466V); test: Cellular assay of target protein degradation, T-Rex 293 cells stably transfected with HA-BRAF G466V (HA immunofluorescence, high content imaging); format: cell-based; conditions: T-Rex 293 HA-BRAF G466V; for DC50: half maximal degradation, read-out: BRaf G466V DC50; for Dmax: maximum degradation observed
T2 construct: expressed in transfected cells
T2 sequence (P15056 whole entry G466V): as the sequence (P15056 whole entry V600E) above, with G466V, E600V counted along it
Procedure, shortened: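 24 h compound, 30 nM–3 pM final, 0.1% DMSO, 37° C; HA-BRAF G466V induced with 0.75 ng/mL doxycycline. PFA fix, Triton perm, anti-HA + Alexa fluor secondary, Hoechst/phalloidin counterstain; imaging. DC50, Dmax (% of control).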

DC50 (BRAF V600E)	Dmax (BRAF V600E)	DC50 (BRAF G466V)	Dmax (BRAF G466V)	Structure (SMILES)
0.005 to 0.05 µM	35 to 70%	0.001 to 0.01 µM	> 70%	O=C1CC[C@H](N2Cc3cc([C@@H](O)CCN4CCC(c5ccc(-c6cnc7[nH]cc(C(=O)c8c(F)ccc(NS(=O)(=O)N9CC[C@@H](F)C9)c8F)c7c6)cc5)CC4)ccc3C2=O)C(=O)N1 [Compound 71, (3R)-N-{3-[5-(4-{1-[(3S)-3-{2-[(3S)-2,6-dioxopiperidin-3-yl]-1-oxo-2,3-dihydro-1H-isoindol-5-yl}-3-hydroxypropyl]piperidin-4-yl}phenyl)-1H-pyrrolo[2,3-b]pyridine-3-carbonyl]-2,4-difluorophenyl}-3-fluoropyrrolidine-1-sulfonamide]
0.005 to 0.05 µM	< 35%	0.001 to 0.01 µM	35 to 70%	O=C1CC[C@@H](N2Cc3cc([C@@H](O)CCN4CCC(c5ccc(-c6cnc7[nH]cc(C(=O)c8c(F)ccc(NS(=O)(=O)N9CC[C@@H](F)C9)c8F)c7c6)cc5)CC4)ccc3C2=O)C(=O)N1 [Compound 72, (3R)-N-{3-[5-(4-{1-[(3S)-3-{2-[(3R)-2,6-dioxopiperidin-3-yl]-1-oxo-2,3-dihydro-1H-isoindol-5-yl}-3-hydroxypropyl]piperidin-4-yl}phenyl)-1H-pyrrolo[2,3-b]pyridine-3-carbonyl]-2,4-difluorophenyl}-3-fluoropyrrolidine-1-sulfonamide]
0.005 to 0.05 µM	35 to 70%	0.001 to 0.01 µM	> 70%	O=C1CC[C@@H](N2Cc3cc(C[C@@H](O)CN4CCN(c5ccc(-c6cnc7[nH]cc(C(=O)c8c(F)ccc(NS(=O)(=O)N9CC[C@@H](F)C9)c8F)c7c6)cc5)CC4)ccc3C2=O)C(=O)N1 [Compound 73, (3R)-N-{3-[5-(4-{4-[(2R)-3-{2-[(3R)-2,6-dioxopiperidin-3-yl]-1-oxo-2,3-dihydro-1H-isoindol-5-yl}-2-hydroxypropyl]piperazin-1-yl}phenyl)-1H-pyrrolo[2,3-b]pyridine-3-carbonyl]-2,4-difluorophenyl}-3-fluoropyrrolidine-1-sulfonamide]
0.005 to 0.05 µM	35 to 70%	0.001 to 0.01 µM	> 70%	O=C1CC[C@H](N2Cc3cc(C[C@H](O)CN4CCN(c5ccc(-c6cnc7[nH]cc(C(=O)c8c(F)ccc(NS(=O)(=O)N9CC[C@@H](F)C9)c8F)c7c6)cc5)CC4)ccc3C2=O)C(=O)N1 [Compound 74]
< 0.005 µM	35 to 70%	0.001 to 0.01 µM	> 70%	O=C1CC[C@@H](N2Cc3cc(C[C@H](O)CN4CCN(c5ccc(-c6cnc7[nH]cc(C(=O)c8c(F)ccc(NS(=O)(=O)N9CC[C@@H](F)C9)c8F)c7c6)cc5)CC4)ccc3C2=O)C(=O)N1 [Compound 75, (3R)-N-{3-[5-(4-{4-[(2S)-3-{2-[(3R)-2,6-dioxopiperidin-3-yl]-1-oxo-2,3-dihydro-1H-isoindol-5-yl}-2-hydroxypropyl]piperazin-1-yl}phenyl)-1H-pyrrolo[2,3-b]pyridine-3-carbonyl]-2,4-difluorophenyl}-3-fluoropyrrolidine-1-sulfonamide]
0.005 to 0.05 µM	35 to 70%	> 0.03 µM		O=C1CC[C@H](N2Cc3cc(CN4C[C@@H]5CN(c6ccc(-c7cnc8[nH]cc(C(=O)c9c(F)ccc(NS(=O)(=O)N%10CC[C@@H](F)C%10)c9F)c8c7)cc6)C[C@@H]5C4)ccc3C2=O)C(=O)N1 [Compound 76, (3R)-N-[3-(5-{4-[(3aR,6aS)-5-({2-[(3S)-2,6-dioxopiperidin-3-yl]-1-oxo-2,3-dihydro-1H-isoindol-5-yl}methyl)-octahydropyrrolo[3,4-c]pyrrol-2-yl]phenyl}-1H-pyrrolo[2,3-b]pyridine-3-carbonyl)-2,4-difluorophenyl]-3-fluoropyrrolidine-1-sulfonamide]
0.005 to 0.05 µM	35 to 70%	> 0.03 µM		O=C1CC[C@@H](N2Cc3cc(CN4C[C@@H]5CN(c6ccc(-c7cnc8[nH]cc(C(=O)c9c(F)ccc(NS(=O)(=O)N%10CC[C@@H](F)C%10)c9F)c8c7)cc6)C[C@@H]5C4)ccc3C2=O)C(=O)N1 [Compound 77, (3R)-N-[3-(5-{4-[(3aR,6aS)-5-({2-[(3R)-2,6-dioxopiperidin-3-yl]-1-oxo-2,3-dihydro-1H-isoindol-5-yl}methyl)-octahydropyrrolo[3,4-c]pyrrol-2-yl]phenyl}-1H-pyrrolo[2,3-b]pyridine-3-carbonyl)-2,4-difluorophenyl]-3-fluoropyrrolidine-1-sulfonamide]
> 0.5 µM	> 70%	> 0.03 µM		O=C1CCC(N2Cc3cc(CN4CCN(c5ccc(-c6cnc7[nH]cc(C(=O)c8c(F)ccc(NS(=O)(=O)N9CC[C@@H](F)C9)c8F)c7c6)cc5)C[C@@H]4CO)ccc3C2=O)C(=O)N1 (stereo partly drawn) [Compound 78, (3R)-N-[3-(5-{4-[(3R)-4-{[2-(2,6-dioxopiperidin-3-yl)-1-oxo-2,3-dihydro-1H-isoindol-5-yl]methyl}-3-(hydroxymethyl)piperazin-1-yl]phenyl}-1H-pyrrolo [2,3-b]pyridine-3-carbonyl)-2,4-difluorophenyl]-3-fluoropyrrolidine-1-sulfonamide]
0.005 to 0.05 µM	35 to 70%	> 0.03 µM		COc1cc(N2CC(N3CCN(c4ccc(-c5cnc6[nH]cc(C(=O)c7c(F)ccc(NS(=O)(=O)N8CC[C@@H](F)C8)c7F)c6c5)cc4)CC3)C2)cc2c1C(=O)N(C1CCC(=O)NC1=O)C2 (stereo partly drawn) [Compound 79, (3R)-N-(3-{5-[4-(4-{1-[2-(2,6-dioxopiperidin-3-yl)-7-methoxy-1-oxo-2,3-dihydro-1H-isoindol-5-yl]azetidin-3-yl}piperazin-1-yl)phenyl]-1H-pyrrolo[2,3-b]pyridine-3-carbonyl}-2,4-difluorophenyl)-3-fluoropyrrolidine-1-sulfonamide]
< 0.005 µM	35 to 70%	0.001 to 0.01 µM	> 70%	O=C1CC[C@H](N2Cc3cc(OCCCN4CC5(C4)CN(c4ccc(-c6cnc7[nH]cc(C(=O)c8c(F)ccc(NS(=O)(=O)N9CC[C@@H](F)C9)c8F)c7c6)cc4)C5)ccc3C2=O)C(=O)N1 [Compound 80, (3R)-N-{3-[5-(4-{6-[3-({2-[(3S)-2,6-dioxopiperidin-3-yl]-1-oxo-2,3-dihydro-1H-isoindol-5-yl}oxy)propyl]-2,6-diazaspiro[3.3]heptan-2-yl}phenyl)-1H-pyrrolo[2,3-b]pyridine-3-carbonyl]-2,4-difluorophenyl}-3-fluoropyrrolidine-1-sulfonamide]
0.005 to 0.05 µM	35 to 70%	0.001 to 0.01 µM	> 70%	O=C1CC[C@@H](N2Cc3cc(OCCCN4CC5(C4)CN(c4ccc(-c6cnc7[nH]cc(C(=O)c8c(F)ccc(NS(=O)(=O)N9CC[C@@H](F)C9)c8F)c7c6)cc4)C5)ccc3C2=O)C(=O)N1 [Compound 81, (3R)-N-{3-[5-(4-{6-[3-({2-[(3R)-2,6-dioxopiperidin-3-yl]-1-oxo-2,3-dihydro-1H-isoindol-5-yl}oxy)propyl]-2,6-diazaspiro[3.3]heptan-2-yl}phenyl)-1H-pyrrolo[2,3-b]pyridine-3-carbonyl]-2,4-difluorophenyl}-3-fluoropyrrolidine-1-sulfonamide]
